# Experimental data as given in patent US8323704B2, “Process for preparation of extract of Decalepis hamiltonii having antioxidant activity” (Council of Scientific and Industrial Research, priority 2003, dated 2012).
# Columns and labels:
# [1] = Antioxidant assay using β-Carotene Linoleate model System (β CLAMS); type: biochemical; settings: bleaching of β carotene, 180 min, 50° C.
# Text: Antioxidant assay using β-Carotene Linoleate model System (β CLAMS) (Hidalgo et al., 1994)
# This is one of the rapid methods to screen antioxidants, which is mainly based on principle that Linoleic acid which is an unsaturated fatty acid gets oxidized by “Reactive Oxgen Species” (ROS) produced by oxygenated water. The products formed will initiate the β-Carotene oxidation, which leads to discoloration.
# Due to insolubility of β-Carotene in water, it is first made into emulsion. β-Carotene is dissolved in chloroform and using Tween-40 (Polyoxyethylene sorbotan manonitrate) as surfactant, it was mixed with Linoleic acid to form emulsion. The resulting mixture is diluted with triple distilled water (1 part) and mixed well. This emulsion is further made up with oxygenated water (4 parts) which initiates the process of oxidation immediately. It is transferred to tubes containing samples. Initial (zero min) reading is read, followed by recording the absorbance at 15 min intervals at 470 nm. All tubes were placed in water bath at 50° C. throughout the experiment.
# β Carotene linoleic acid emulsion mixture—100 ml (Jayaprakash et al., 2000) […]
# […] Absorbance of all samples were taken at 470 nm at Zero time and tubes were placed at 50° C. in water bath., Measurement of Absorbance was continued at an interval of 15 minutes, till the colour of β carotene disappeared in the control reaction (t=180 min). […] Dose response of antioxidant activity for various extracts was determined at different concentrations.
# The antioxidant activity (% AA) of extracts was evaluated in terms of bleaching of β Carotene using the following formula (Hidalgo et al, 1994).
# Each experiment was carried out in triplicate and the deviation of absorbance value was less than 10%. % AA=100[1-(A^0-A^t)/A^00-A^0t)] […]
# A^0=Zero time absorbance of sample
# A^t=Absorbance of sample after incubation for 180 min
# A^00=Zero time absorbance of control
# A^t0=Absorbance of control after incubation for 180 min.
# And results were expressed as % Antioxidant activity.
# [2] = Free radical scavenging activity using D.P.P.H as stable free radical; type: biochemical; settings: 20 minutes, 517 nm
# Description: Schematic representation of chemically stable radical scavenging activity using D.P.P.H as stable free radical: (Blios, 1958)
# Free radical scavenging potentials of the extracts were tested against a methanolic solution of α,α-diphenyl-β-picryl hydrazyl (D.P.P.H). Antioxidants reacts with D.P.P.H. and convert it to α,α-diphenyl-β-picryl hydrazine. The degree of discoloration indicates the scavenging potentials of the antioxidant extract. The change in the absorbance produced at 517 nm has been used as a measure of antioxidant activity.
# • Methanolic solution of D.P.P.H (100 μM): 39.4 mg of D.P.P.H was dissolved in one liter of analytical grade methanol. • Preparation of the extract solutions: 55 mg of the extract was dissolved in 10 ml of methanol and filtered; the filtrate was used for the experiments. Method:
# Aliquots of 0.025, 0.05, 0.1 ml of extracts and standard were taken in different test tubes. To this 5 ml of methanolic solution of D.P.P.H was added, shaken well and the mixture was allowed to stand at room temperature for 20 minutes. The blank was prepared as above without extract. […] The absorbance of blank was first noted at 517 nm. The change of absorbance of the samples was measured.
# Scavenging activity was expressed as the inhibition percentage calculated using the following formula, […]
Compound,"% Activity ± S.D (antioxidant activity, % AA) ([1]; 100 ppm) [%]","% Activity ± S.D (antioxidant activity, % AA) ([1]; 500 ppm) [%]","% Activity ± S.D (antioxidant activity, % AA) ([1]; 1000 ppm) [%]","% Activity ± S.D (anti-radical activity, inhibition percentage) ([2]; 100 ppm) [%]","% Activity ± S.D (anti-radical activity, inhibition percentage) ([2]; 500 ppm) [%]","% Activity ± S.D (anti-radical activity, inhibition percentage) ([2]; 1000 ppm) [%]"
"COc1ccc(O)c(C(C)(C)C)c1 [Standard BHA, butylated hydroxy anisole]",84.3,88.6,90.1,,,
"α,α-diphenyl-β-picryl hydrazyl [Standard D.P.P.H]",,,,88.3,92.6,94.3
